Assay results reported in patent US20210045385A1, “PYRIDAZINONE-SUBSTITUTED KETOXIMES AS HERBICIDES” (FMC Corporation, priority 2018, published 2021).

Legend:
Assay type in all cases: in vivo
[1] = test system: Italian ryegrass (Lolium multiflorum); assay: Test A preemergence, visual plant response rating; details: for Ryegrass, Italian plant response rating: 125 g ai/ha, preemergence, 0 to 100 scale, 0 no effect, 100 complete control; for Ryegrass, Italian plant response rating (0 to 100 scale): 500 g ai/ha Preemergence, approx. 10 days
Method in brief: (§1)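 Compared with untreated controls, treated plants received a visual injury score on a 0–100 scale around 10 days after application. The compound, in a non-phytotoxic solvent with surfactant, was given as a preemergence soil spray or postemergence at the one- to two-leaf stage.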

[2] = test system: barnyardgrass (Echinochloa crus-galli); assay: Test A preemergence, visual plant response rating; details: for Barnyardgrass plant response rating: 125 g ai/ha, preemergence, 0 to 100 scale, 0 no effect, 100 complete control; for Barnyardgrass plant response rating (0 to 100 scale): 500 g ai/ha Preemergence, approx. 10 days
Method in brief: as §1

[3] = test system: foxtail, giant (giant foxtail, Setaria faberii); assay: Test A preemergence, visual plant response rating; details: for Foxtail, Giant plant response rating: 125 g ai/ha, preemergence, 0 to 100 scale, 0 no effect, 100 complete control; for Foxtail, Giant plant response rating (0 to 100 scale): 500 g ai/ha Preemergence, approx. 10 days
Method in brief: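 Formulated in a non-phytotoxic solvent mixture including surfactant, each test chemical was sprayed onto the soil surface after sowing, or onto seedlings 2 to 10 cm high. Roughly 10 days later, plants were compared with untreated controls and rated for injury from 0 (no effect) to 100 (complete control).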

kochia (Kochia scoparia) [4] = assay: Test A preemergence, visual plant response rating; details: for Kochia plant response rating: 125 g ai/ha, preemergence, 0 to 100 scale, 0 no effect, 100 complete control; for Kochia plant response rating (0 to 100 scale): 500 g ai/ha Preemergence, approx. 10 days
Method in brief: as §1

[5] = test system: pigweed (Amaranthus retroflexus); assay: Test A preemergence, visual plant response rating; details: for Pigweed plant response rating: 125 g ai/ha, preemergence, 0 to 100 scale, 0 no effect, 100 complete control; for Pigweed plant response rating (0 to 100 scale): 500 g ai/ha Preemergence, approx. 10 days
Method in brief: as §1

[6] = test system: ragweed (common ragweed, Ambrosia elatior); assay: Test A preemergence, visual plant response rating; details: for Ragweed plant response rating: 125 g ai/ha, preemergence, 0 to 100 scale, 0 no effect, 100 complete control; for Ragweed plant response rating (0 to 100 scale): 500 g ai/ha Preemergence, approx. 10 days
Method in brief: as §1

[7] = test system: Italian ryegrass (Lolium multiflorum); assay: Test A postemergence, visual plant response rating; details: for Ryegrass, Italian plant response rating (0 to 100 scale): 500 g ai/ha, postemergence, 0 is no effect, 100 is complete control; for Ryegrass, Italian plant response rating: Postemergence, 125 g ai/ha, 0 to 100 scale (0 no effect, 100 complete control)
Method in brief: as §1

[8] = test system: barnyardgrass (Echinochloa crus-galli); assay: Test A postemergence, visual plant response rating; details: for Barnyardgrass plant response rating (0 to 100 scale): 500 g ai/ha, postemergence, 0 is no effect, 100 is complete control; for Barnyardgrass plant response rating: Postemergence, 125 g ai/ha, 0 to 100 scale (0 no effect, 100 complete control)
Method in brief: as §1

[9] = test system: blackgrass (Alopecurus myosuroides); assay: Test A postemergence, visual plant response rating; details: for Blackgrass plant response rating (0 to 100 scale): 500 g ai/ha, postemergence, 0 is no effect, 100 is complete control; for Blackgrass plant response rating: Postemergence, 125 g ai/ha, 0 to 100 scale (0 no effect, 100 complete control)
Method in brief: as §1

corn (Zea mays) = assay: Test A postemergence, visual plant response rating; details: for Corn plant response rating (0 to 100 scale): 500 g ai/ha, postemergence, 0 is no effect, 100 is complete control; for Corn plant response rating: Postemergence, 125 g ai/ha, 0 to 100 scale (0 no effect, 100 complete control)
Method in brief: as §1

[10] = test system: foxtail, giant (giant foxtail, Setaria faberii); assay: Test A postemergence, visual plant response rating; details: for Foxtail, Giant plant response rating (0 to 100 scale): 500 g ai/ha, postemergence, 0 is no effect, 100 is complete control; for Foxtail, Giant plant response rating: Postemergence, 125 g ai/ha, 0 to 100 scale (0 no effect, 100 complete control)
Method in brief: as §1

[11] = test system: galium (catchweed bedstraw, Galium aparine); assay: Test A postemergence, visual plant response rating; details: for Galium plant response rating (0 to 100 scale): 500 g ai/ha, postemergence, 0 is no effect, 100 is complete control; for Galium plant response rating: Postemergence, 125 g ai/ha, 0 to 100 scale (0 no effect, 100 complete control)
Method in brief: as §1

kochia (Kochia scoparia) [12] = assay: Test A postemergence, visual plant response rating; details: for Kochia plant response rating (0 to 100 scale): 500 g ai/ha, postemergence, 0 is no effect, 100 is complete control; for Kochia plant response rating: Postemergence, 125 g ai/ha, 0 to 100 scale (0 no effect, 100 complete control)
Method in brief: as §1

[13] = test system: pigweed (Amaranthus retroflexus); assay: Test A postemergence, visual plant response rating; details: for Pigweed plant response rating (0 to 100 scale): 500 g ai/ha, postemergence, 0 is no effect, 100 is complete control; for Pigweed plant response rating: Postemergence, 125 g ai/ha, 0 to 100 scale (0 no effect, 100 complete control)
Method in brief: as §1

[14] = test system: ragweed (common ragweed, Ambrosia elatior); assay: Test A postemergence, visual plant response rating; details: for Ragweed plant response rating (0 to 100 scale): 500 g ai/ha, postemergence, 0 is no effect, 100 is complete control; for Ragweed plant response rating: Postemergence, 125 g ai/ha, 0 to 100 scale (0 no effect, 100 complete control)
Method in brief: as §1

[15] = test system: wheat (Triticum aestivum); assay: Test A postemergence, visual plant response rating; details: for Wheat plant response rating (0 to 100 scale): 500 g ai/ha, postemergence, 0 is no effect, 100 is complete control; for Wheat plant response rating: Postemergence, 125 g ai/ha, 0 to 100 scale (0 no effect, 100 complete control)
Method in brief: as §1

[16] = test system: barnyardgrass (Echinochloa crus-galli); assay: Test B flooded paddy test, visual plant response rating; details: 250 g ai/ha, Flood, applied to paddy water, 2-leaf stage, evaluated after 13 to 15 days
Method in brief: (§2)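 2-leaf plants; pots flooded 3 cm over soil surface; compound dosed straight into the floodwater; depth kept constant; greenhouse 13–15 d; visual rating vs. untreated controls.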

[17] = test system: ducksalad (Heteranhera limosa); assay: as above; details: 250 g ai/ha, Flood, applied to paddy water, 2-leaf stage, evaluated after 13 to 15 days
Method in brief: as §2

rice (Oryza sativa) = assay: as above; details: 250 g ai/ha, Flood, applied to paddy water, 2-leaf stage, evaluated after 13 to 15 days
Method in brief: as §2

[18] = test system: sedge, umbrella (small-flower umbrella sedge, Cyperus difformis); assay: as above; details: 250 g ai/ha, Flood, applied to paddy water, 2-leaf stage, evaluated after 13 to 15 days
Method in brief: as §2

Compound | Ryegrass, Italian plant response rating [1] | Ryegrass, Italian plant response rating (0 to 100 scale) [1] | Barnyardgrass plant response rating [2] | Barnyardgrass plant response rating (0 to 100 scale) [2] | Foxtail, Giant plant response rating [3] | Foxtail, Giant plant response rating (0 to 100 scale) [3] | Kochia plant response rating (kochia (Kochia scoparia) [4]) | Kochia plant response rating (0 to 100 scale) (kochia (Kochia scoparia) [4]) | Pigweed plant response rating [5] | Pigweed plant response rating (0 to 100 scale) [5] | Ragweed plant response rating [6] | Ragweed plant response rating (0 to 100 scale) [6] | Ryegrass, Italian plant response rating (0 to 100 scale) [7] | Ryegrass, Italian plant response rating [7] | Barnyardgrass plant response rating (0 to 100 scale) [8] | Barnyardgrass plant response rating [8] | Blackgrass plant response rating (0 to 100 scale) [9] | Blackgrass plant response rating [9] | Corn plant response rating (0 to 100 scale) (corn (Zea mays)) | Corn plant response rating (corn (Zea mays)) | also measured
CON=C(c1cc(Cl)ccc1C)c1c(O)c(C)nn(C)c1=O [Compound 65] | 0 | 30 | 20 | 50 | 20 | 40 | 0 | 30 | 50 | 100 | 20 | 100 | 90 | 50 | 40 | 30 | 30 | 10 | 0 | 0 | Foxtail, Giant plant response rating (0 to 100 scale) [10]: 70; Foxtail, Giant plant response rating [10]: 30; Galium plant response rating (0 to 100 scale) [11]: 90; Galium plant response rating [11]: 70; Kochia plant response rating (0 to 100 scale) (kochia (Kochia scoparia) [12]): 80; Kochia plant response rating (kochia (Kochia scoparia) [12]): 70; Pigweed plant response rating (0 to 100 scale) [13]: 90; Pigweed plant response rating [13]: 90; Ragweed plant response rating (0 to 100 scale) [14]: 80; Ragweed plant response rating [14]: 60; Wheat plant response rating (0 to 100 scale) [15]: 20; Wheat plant response rating [15]: 0; Plant response rating, Barnyardgrass (0 to 100 scale, 0 is no effect, 100 is complete control) [16]: 0; Plant response rating, Ducksalad (0 to 100 scale, 0 is no effect, 100 is complete control) [17]: 0; Plant response rating, Rice (0 to 100 scale, 0 is no effect, 100 is complete control) (rice (Oryza sativa)): 0; Plant response rating, Sedge, Umbrella (0 to 100 scale, 0 is no effect, 100 is complete control) [18]: 0
CON=C(c1cc(C)ccc1Cl)c1c(O)c(C)nn(C)c1=O [Compound 67] | 0 | 10 | 0 | 0 | 0 | 0 | 0 | 10 | 0 | 0 | 10 | 10 | 20 | 10 | 0 | 0 | 30 | 0 | 0 | 0 | Foxtail, Giant plant response rating (0 to 100 scale) [10]: 10; Foxtail, Giant plant response rating [10]: 0; Galium plant response rating (0 to 100 scale) [11]: 80; Galium plant response rating [11]: 70; Kochia plant response rating (0 to 100 scale) (kochia (Kochia scoparia) [12]): 20; Kochia plant response rating (kochia (Kochia scoparia) [12]): 20; Pigweed plant response rating (0 to 100 scale) [13]: 30; Pigweed plant response rating [13]: 0; Ragweed plant response rating (0 to 100 scale) [14]: 70; Ragweed plant response rating [14]: 50; Wheat plant response rating (0 to 100 scale) [15]: 0; Wheat plant response rating [15]: 0; Plant response rating, Barnyardgrass (0 to 100 scale, 0 is no effect, 100 is complete control) [16]: 0; Plant response rating, Ducksalad (0 to 100 scale, 0 is no effect, 100 is complete control) [17]: 0; Plant response rating, Rice (0 to 100 scale, 0 is no effect, 100 is complete control) (rice (Oryza sativa)): 0; Plant response rating, Sedge, Umbrella (0 to 100 scale, 0 is no effect, 100 is complete control) [18]: 0
CCc1cccc(/C(=N\OC)c2c(O)c(C)nn(C)c2=O)c1 [Compound 68] | 30 | 60 | 0 | 0 | 0 | 20 | 10 | 40 | 50 | 80 | 20 | 50 | 30 | 20 | 0 | 0 | 30 | 30 | 0 | 0 | Foxtail, Giant plant response rating (0 to 100 scale) [10]: 10; Foxtail, Giant plant response rating [10]: 0; Galium plant response rating (0 to 100 scale) [11]: 70; Galium plant response rating [11]: 60; Kochia plant response rating (0 to 100 scale) (kochia (Kochia scoparia) [12]): 80; Kochia plant response rating (kochia (Kochia scoparia) [12]): 70; Pigweed plant response rating (0 to 100 scale) [13]: 80; Pigweed plant response rating [13]: 30; Ragweed plant response rating (0 to 100 scale) [14]: 90; Ragweed plant response rating [14]: 70; Wheat plant response rating (0 to 100 scale) [15]: 0; Wheat plant response rating [15]: 0; Plant response rating, Barnyardgrass (0 to 100 scale, 0 is no effect, 100 is complete control) [16]: 0; Plant response rating, Ducksalad (0 to 100 scale, 0 is no effect, 100 is complete control) [17]: 0; Plant response rating, Rice (0 to 100 scale, 0 is no effect, 100 is complete control) (rice (Oryza sativa)): 0; Plant response rating, Sedge, Umbrella (0 to 100 scale, 0 is no effect, 100 is complete control) [18]: 0
CCc1ccccc1/C(=N\OC)c1c(O)c(C)nn(C)c1=O [Compound 69] | 10 | 80 | 0 | 10 | 10 | 30 | 0 | 10 | 10 | 70 | 10 | 40 | 80 | 80 | 30 | 20 | 60 | 10 | 20 | 0 | Foxtail, Giant plant response rating (0 to 100 scale) [10]: 40; Foxtail, Giant plant response rating [10]: 10; Galium plant response rating (0 to 100 scale) [11]: 80; Galium plant response rating [11]: 70; Kochia plant response rating (0 to 100 scale) (kochia (Kochia scoparia) [12]): 70; Kochia plant response rating (kochia (Kochia scoparia) [12]): 50; Pigweed plant response rating (0 to 100 scale) [13]: 70; Pigweed plant response rating [13]: 40; Ragweed plant response rating (0 to 100 scale) [14]: 70; Ragweed plant response rating [14]: 70; Wheat plant response rating (0 to 100 scale) [15]: 0; Wheat plant response rating [15]: 0; Plant response rating, Barnyardgrass (0 to 100 scale, 0 is no effect, 100 is complete control) [16]: 0; Plant response rating, Ducksalad (0 to 100 scale, 0 is no effect, 100 is complete control) [17]: 0; Plant response rating, Rice (0 to 100 scale, 0 is no effect, 100 is complete control) (rice (Oryza sativa)): 0; Plant response rating, Sedge, Umbrella (0 to 100 scale, 0 is no effect, 100 is complete control) [18]: 0
